Experiments:
[1] = biological target: T1, KRas^WT (Homo sapiens, UniProt P01116); experiment: KRas binding assay (TR-FRET tracer displacement), KRas WT; settings: for inhibition at 0.01 µM: single point, 10 nM compound, TR-FRET; for IC50: TR-FRET tracer displacement, KRas WT
T1 construct: Biotinylated KRas (corresponding to amino acids 1-169, produced at Accelegan Inc.); biotin (biotinylated); purchased Accelegan Inc

[2] = biological target: T2, KRas^G12A (Homo sapiens, UniProt P01116, G12A); experiment: KRas binding assay (TR-FRET tracer displacement), KRas G12A; settings: for inhibition at 0.01 µM: single point, 10 nM compound, TR-FRET; for IC50: TR-FRET tracer displacement, KRas G12A
T2 construct: Biotinylated KRas (corresponding to amino acids 1-169, produced at Accelegan Inc.); biotin (biotinylated); purchased Accelegan Inc

[3] = biological target: T3, KRas^G12C (Homo sapiens, UniProt P01116, G12C); experiment: KRas binding assay (TR-FRET tracer displacement), KRas G12C; settings: for inhibition at 0.01 µM: single point, 10 nM compound, TR-FRET; for IC50: TR-FRET tracer displacement, KRas G12C
T3 construct: Biotinylated KRas (corresponding to amino acids 1-169, produced at Accelegan Inc.); biotin (biotinylated); purchased Accelegan Inc

[4] = biological target: T4, KRas^G12D (Homo sapiens, UniProt P01116, G12D); experiment: KRas binding assay (TR-FRET tracer displacement), KRas G12D
T4 construct: Biotinylated KRas (corresponding to amino acids 1-169, produced at Accelegan Inc.); biotin (biotinylated); purchased Accelegan Inc

[5] = biological target: T5, KRas^G12R (Homo sapiens, UniProt P01116, G12R); experiment: KRas binding assay (TR-FRET tracer displacement), KRas G12R
T5 construct: Biotinylated KRas (corresponding to amino acids 1-169, produced at Accelegan Inc.); biotin (biotinylated); purchased Accelegan Inc

[6] = biological target: T6, KRas^G12S (Homo sapiens, UniProt P01116, G12S); experiment: KRas binding assay (TR-FRET tracer displacement), KRas G12S; settings: for inhibition at 0.01 µM: single point, 10 nM compound, TR-FRET; for IC50: TR-FRET tracer displacement, KRas G12S
T6 construct: Biotinylated KRas (corresponding to amino acids 1-169, produced at Accelegan Inc.); biotin (biotinylated); purchased Accelegan Inc

[7] = biological target: T7, KRas^G12V (Homo sapiens, UniProt P01116, G12V); experiment: KRas binding assay (TR-FRET tracer displacement), KRas G12V
T7 construct: Biotinylated KRas (corresponding to amino acids 1-169, produced at Accelegan Inc.); biotin (biotinylated); purchased Accelegan Inc

[8] = biological target: T8, KRas^G13D (Homo sapiens, UniProt P01116, G13D); experiment: KRas binding assay (TR-FRET tracer displacement), KRas G13D; settings: for inhibition at 0.01 µM: single point, 10 nM compound, TR-FRET; for IC50: TR-FRET tracer displacement, KRas G13D
T8 construct: Biotinylated KRas (corresponding to amino acids 1-169, produced at Accelegan Inc.); biotin (biotinylated); purchased Accelegan Inc

[9] = biological target: T9, KRas^Q61H (Homo sapiens, UniProt P01116, Q61H); experiment: KRas binding assay (TR-FRET tracer displacement), KRas Q61H; settings: for inhibition at 0.01 µM: single point, 10 nM compound, TR-FRET; for IC50: TR-FRET tracer displacement, KRas Q61H
T9 construct: Biotinylated KRas (corresponding to amino acids 1-169, produced at Accelegan Inc.); biotin (biotinylated); purchased Accelegan Inc

[10] = system: KRas-mediated phosphorylation of ERK in MKN1 cells; experiment: Inhibition of KRas-mediated phosphorylation of ERK (Cisbio HTRF pERK), MKN1 cells; format: cell-based; settings: Homo sapiens, MKN-1
Procedure, shortened: (§1)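 Seeding density was 6,000 cells/well; medium RPMI, 10% FBS. Read-out by homogeneous time-resolved fluorescence (pERK) after 4 hours covered at room temperature.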

[11] = system: KRas-mediated phosphorylation of ERK in PSN1 cells; experiment: Inhibition of KRas-mediated phosphorylation of ERK (Cisbio HTRF pERK), PSN1 cells; format: cell-based; settings: Homo sapiens
Procedure, shortened: as §1

[12] = system: KRas-mediated phosphorylation of ERK in AsPC-1 cells; experiment: Inhibition of KRas-mediated phosphorylation of ERK (Cisbio HTRF pERK), AsPC-1 cells; format: cell-based; settings: Homo sapiens; for IC50: ASPC1, AsPC-1 cells, HTRF pERK
Procedure, shortened: (§2)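 Min control wells contained 0.2 uM Trametinib, while test compounds ran as 10 doses (3-fold, top 10 uM; 0.8% DMSO final) on cells for 3 hrs. After 40 mins lysis at 4° C, lysates were probed with HTRF antibodies for 2 hrs at room temperature.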

[13] = system: KRas-mediated phosphorylation of ERK in H727 cells; experiment: Inhibition of KRas-mediated phosphorylation of ERK (Cisbio HTRF pERK), H727 cells; format: cell-based; settings: Homo sapiens; for IC50: NCI-H727, H727 cells, HTRF pERK
Procedure, shortened: as §2

[14] = system: KRas-mediated phosphorylation of ERK in A549 cells; experiment: Inhibition of KRas-mediated phosphorylation of ERK (Cisbio HTRF pERK), A549 cells; format: cell-based; settings: Homo sapiens; for IC50: HTRF pERK
Procedure, shortened: as §2

[15] = system: KRas-mediated phosphorylation of ERK in H460 cells; experiment: Inhibition of KRas-mediated phosphorylation of ERK (Cisbio HTRF pERK), H460 cells; format: cell-based; settings: Homo sapiens; for inhibition at 0.1 µM: NCI-H460, 3 h, single point, 100 nM compound, 3 hrs; for IC50: NCI-H460, HTRF pERK
Procedure, shortened: as §2

[16] = system: KRas-mediated phosphorylation of ERK in HCT116 cells; experiment: Inhibition of KRas-mediated phosphorylation of ERK (Cisbio HTRF pERK), HCT116 cells; format: cell-based; settings: Homo sapiens; for inhibition at 0.1 µM: HCT-116, 3 h, single point, 100 nM compound, 3 hrs; for IC50: HCT-116, HTRF pERK
Procedure, shortened: as §2

[17] = system: KRas-mediated phosphorylation of ERK in H358 cells; experiment: Inhibition of KRas-mediated phosphorylation of ERK (Cisbio HTRF pERK), H358 cells; format: cell-based; settings: Homo sapiens
Procedure, shortened: as §2

T9 sequence (P01116 1-169 isoform P01116-2 Q61H): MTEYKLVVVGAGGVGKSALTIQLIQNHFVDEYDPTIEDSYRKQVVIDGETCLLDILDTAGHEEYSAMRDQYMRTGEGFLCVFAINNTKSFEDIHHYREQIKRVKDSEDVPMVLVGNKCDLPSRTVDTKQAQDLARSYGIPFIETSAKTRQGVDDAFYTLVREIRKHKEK
T6 sequence (P01116 1-169 isoform P01116-2 G12S): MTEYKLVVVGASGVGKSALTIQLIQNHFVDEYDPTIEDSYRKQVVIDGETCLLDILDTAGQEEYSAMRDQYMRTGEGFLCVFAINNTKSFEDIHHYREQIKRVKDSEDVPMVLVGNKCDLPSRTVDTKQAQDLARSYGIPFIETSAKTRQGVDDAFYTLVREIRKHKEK
T3 sequence (P01116 1-169 isoform P01116-2 G12C): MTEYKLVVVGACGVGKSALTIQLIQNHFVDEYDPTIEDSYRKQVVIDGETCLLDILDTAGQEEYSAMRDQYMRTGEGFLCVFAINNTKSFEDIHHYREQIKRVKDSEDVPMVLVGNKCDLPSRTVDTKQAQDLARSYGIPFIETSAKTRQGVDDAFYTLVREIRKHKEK
T4 sequence (P01116 1-169 isoform P01116-2 G12D): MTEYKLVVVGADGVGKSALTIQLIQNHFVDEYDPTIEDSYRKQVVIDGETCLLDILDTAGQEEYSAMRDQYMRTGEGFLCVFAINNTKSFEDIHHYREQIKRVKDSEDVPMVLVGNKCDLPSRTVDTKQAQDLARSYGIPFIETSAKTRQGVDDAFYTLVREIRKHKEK
T7 sequence (P01116 1-169 isoform P01116-2 G12V): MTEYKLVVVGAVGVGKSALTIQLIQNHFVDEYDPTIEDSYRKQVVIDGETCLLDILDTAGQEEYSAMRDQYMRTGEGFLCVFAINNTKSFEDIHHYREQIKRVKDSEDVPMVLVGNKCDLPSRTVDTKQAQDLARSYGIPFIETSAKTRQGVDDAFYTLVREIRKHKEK
T2 sequence (P01116 1-169 isoform P01116-2 G12A): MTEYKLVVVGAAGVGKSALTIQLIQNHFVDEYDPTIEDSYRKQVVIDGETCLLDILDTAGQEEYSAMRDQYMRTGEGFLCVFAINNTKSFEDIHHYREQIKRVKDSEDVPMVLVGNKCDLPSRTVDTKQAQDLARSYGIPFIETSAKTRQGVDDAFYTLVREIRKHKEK
T1 sequence (P01116 1-169 isoform P01116-2): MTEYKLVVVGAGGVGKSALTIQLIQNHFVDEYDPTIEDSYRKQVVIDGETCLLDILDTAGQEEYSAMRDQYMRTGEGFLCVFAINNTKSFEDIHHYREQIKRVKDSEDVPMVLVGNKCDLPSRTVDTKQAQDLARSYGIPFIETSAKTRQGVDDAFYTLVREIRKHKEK
T5 sequence (P01116 1-169 isoform P01116-2 G12R): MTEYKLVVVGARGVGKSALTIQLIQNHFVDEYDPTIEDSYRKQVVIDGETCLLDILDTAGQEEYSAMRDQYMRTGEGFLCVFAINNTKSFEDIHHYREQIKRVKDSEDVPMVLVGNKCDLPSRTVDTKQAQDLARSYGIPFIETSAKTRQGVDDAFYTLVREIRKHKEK
T8 sequence (P01116 1-169 isoform P01116-2 G13D): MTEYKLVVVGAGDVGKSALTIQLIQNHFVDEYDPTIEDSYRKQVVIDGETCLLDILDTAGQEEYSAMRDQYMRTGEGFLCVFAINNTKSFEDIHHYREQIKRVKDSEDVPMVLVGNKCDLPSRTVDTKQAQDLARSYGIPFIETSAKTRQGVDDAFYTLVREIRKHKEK

inhibition at 0.01 µM [1]	inhibition at 0.01 µM [2]	inhibition at 0.01 µM [3]	IC50 [4]	IC50 [5]	inhibition at 0.01 µM [6]	IC50 [7]	inhibition at 0.01 µM [8]	IC50 [10]	IC50 [11]	IC50 [12]	IC50 [13]	IC50 [14]	IC50 [16]	IC50 [1]	IC50 [2]	IC50 [3]	IC50 [6]	IC50 [8]	IC50 [9]	Structure (SMILES)	other results
80%	74%	88%	2 nM	4 nM	83%	3 nM	86%	25 nM	2610 nM	22 nM	49 nM	47 nM								CCc1c(F)ccc2cc(O)cc(-c3ncc4c(N5CCOCC(C)(O)C5)nc(OCC56CCCN5[C@H](COC(=O)N(C)C)CC6)nc4c3F)c12 (stereo in doubt) [Example 710, ((3S,7aR)-7a-(((7-(8-ethyl-7-fluoro-3-hydroxynaphthalen-1-yl)-8-fluoro-4-(6-hydroxy-6-methyl-1,4-oxazepan-4-yl)pyrido[4,3-d]pyrimidin-2-yl)oxy)methyl)hexahydro-1H-pyrrolizin-3-yl)methyl dimethylcarbamate]	inhibition at 0.01 µM [9]: 88%; inhibition at 0.1 µM [15]: 66%; inhibition at 0.1 µM [16]: 37%
62%	59%	76%	< 2 nM	3 nM	81%	3 nM	69%	35 nM	> 10000 nM	76 nM	217 nM	496 nM	1060 nM							CCc1c(F)ccc2cc(O)cc(-c3ncc4c(N5CCCn6nncc6C5)nc(OC[C@@]56CCCN5C[C@H](F)C6)nc4c3F)c12 [Example 562, 4-(4-(7,8-dihydro-4H-[1,2,3]triazolo[1,5-a][1,4]diazepin-5(6H)-yl)-8-fluoro-2-(((2R,7aS)-2-fluorohexahydro-1H-pyrrolizin-7a-yl)methoxy)pyrido[4,3-d]pyrimidin-7-yl)-5-ethyl-6-fluoronaphthalen-2-ol]	inhibition at 0.01 µM [9]: 67%; IC50 [15]: 438 nM
97%	94%	96%	< 2 nM	< 2 nM	98%	< 2 nM	98%	2 nM	1380 nM	62 nM	33 nM	19 nM	29 nM							CCc1c(F)ccc2cc(O)cc(-c3ncc4c(N5C[C@@H]6C[C@H](C5)[C@H](O)[C@@H]6O)nc(OC[C@@]56CCCN5C[C@H](F)C6)nc4c3F)c12 [Example 568, (1R,5S,6R,7S)-3-(7-(8-ethyl-7-fluoro-3-hydroxynaphthalen-1-yl)-8-fluoro-2-(((2R,7aS)-2-fluorohexahydro-1H-pyrrolizin-7a-yl)methoxy)pyrido[4,3-d]pyrimidin-4-yl)-3-azabicyclo[3.2.1]octane-6,7-diol]	inhibition at 0.01 µM [9]: 98%; IC50 [15]: 17 nM
			60 nM	34 nM		23 nM		> 10000 nM	> 10000 nM	2510 nM	2510 nM			34 nM	35 nM	31 nM	31 nM	37 nM	40 nM	Cc1cc2[nH]ncc2c(-c2ncc3c(N4CCCC5(C4)NC(=O)NC5=O)nc(OCC45CCCN4CCC5)nc3c2F)c1C (centres unmarked) [Example 728, 7-(7-(5,6-dimethyl-1H-indazol-4-yl)-8-fluoro-2-((hexahydro-1H-pyrrolizin-7a-yl)methoxy)pyrido[4,3-d]pyrimidin-4-yl)-1,3,7-triazaspiro[4.5]decane-2,4-dione]	
			< 2 nM	< 2 nM		< 2 nM		624 nM	> 10000 nM	1600 nM	292 nM	2610 nM	1790 nM	3 nM	< 2 nM	< 2 nM	2 nM	3 nM	< 2 nM	Oc1cc(Cl)c(C2CC2)c(-c2ncc3c(N4CCC[C@]5(C4)C[C@H](O)C5)nc(OCC45CCCN4CCC5)nc3c2F)c1 [Example 742, (2s,4r)-6-(7-(3-chloro-2-cyclopropyl-5-hydroxyphenyl)-8-fluoro-2-((tetrahydro-1H-pyrrolizin-7a(5H)-yl)methoxy)pyrido[4,3-d]pyrimidin-4-yl)-6-azaspiro[3.5]nonan-2-ol]	
			8 nM	74 nM		23 nM		> 10000 nM	> 10000 nM	4320 nM	1280 nM			106 nM	65 nM	41 nM	33 nM	177 nM	151 nM	CN(C)C(=O)c1cc2n(n1)CCCN(c1nc(OC[C@@]34CCCN3C[C@H](F)C4)nc3c(F)c(-c4c5ccccc5cc5[nH]ncc45)ncc13)C2 [Example 761, 5-(7-(1H-benzo[f]indazol-4-yl)-8-fluoro-2-(((2R,7aS)-2-fluorohexahydro-1H-pyrrolizin-7a-yl)methoxy)pyrido[4,3-d]pyrimidin-4-yl)-N,N-dimethyl-5,6,7,8-tetrahydro-4H-pyrazolo[1,5-a][1,4]diazepine-2-carboxamide]	inhibition at 0.1 µM [15]: 11%; inhibition at 0.1 µM [16]: -13%
			< 2 nM	< 2 nM		< 2 nM				784 nM	340 nM	412 nM	557 nM	< 2 nM	< 2 nM	< 2 nM	< 2 nM	< 2 nM	< 2 nM	O=C1NC(=O)[C@]2(CCCN(c3nc(OC[C@@]45CCCN4C[C@H](F)C5)nc4c(F)c(-c5c(C6CC6)c(Cl)cc6[nH]ncc56)ncc34)C2)N1 [Example 780, (5R)-7-(7-(6-chloro-5-cyclopropyl-1H-indazol-4-yl)-8-fluoro-2-(((2R,7aS)-2-fluorohexahydro-1H-pyrrolizin-7a-yl)methoxy)pyrido[4,3-d]pyrimidin-4-yl)-1,3,7-triazaspiro[4.5]decane-2,4-dione]	inhibition at 0.1 µM ([12]; ASPC1, 3 h, single point, 100 nM compound, 3 hrs, AsPC-1 cells): -12%; inhibition at 0.1 µM ([13]; NCI-H727, 3 h, single point, 100 nM compound, 3 hrs, H727 cells): 30%; inhibition at 0.1 µM ([14]; A549, 3 h, single point, 100 nM compound, 3 hrs): 21%; inhibition at 0.1 µM [15]: -8%; IC50 [15]: 246 nM; inhibition at 0.1 µM [16]: -2%; inhibition at 0.1 µM ([17]; NCI-H358, 3 h, single point, 100 nM compound, 3 hrs): 42%; IC50 ([17]; NCI-H358, HTRF pERK): 33 nM
			2 nM	11 nM		4 nM		> 10000 nM	> 10000 nM	> 10000 nM	> 10000 nM			22 nM	14 nM	7 nM	7 nM	25 nM	22 nM	CN(C)C(=O)c1cc2n(n1)CCCN(c1nc(OCC34CCCN3CCC4)nc3c(F)c(-c4c(C5CC5)c(Cl)cc5[nH]ncc45)ncc13)C2 [Example 881, 5-(7-(6-chloro-5-cyclopropyl-1H-indazol-4-yl)-8-fluoro-2-((tetrahydro-1H-pyrrolizin-7a(5H)-yl)methoxy)pyrido[4,3-d]pyrimidin-4-yl)-N,N-dimethyl-5,6,7,8-tetrahydro-4H-pyrazolo[1,5-a][1,4]diazepine-2-carboxamide]	

Source: patent publication US20260015350A1, “AZAQUINAZOLINE PAN-KRAS INHIBITORS” (Mirati Therapeutics, Inc., priority 2022, published 2026)
